Test results from paper PMC10447463, “Data-mining unveils structure–property–activity correlation of viral infectivity enhancing self-assembling peptides” (Nature Communications, 2023).
Like-named read-outs stand apart in the source and are kept apart here.

Key:
[1] = format: physicochemical; settings: for ThT Cat. / ThT-Fluorescence (categorical): ThT-active if fluorescence at least twice the control
How it was run: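 Fibrils (1 mg/mL solution) were mixed with 50 µM ThT in PBS for 15 min at RT, and fluorescence was read at λex 440/λem 488 nm against a PBS blank, as a triplicate mean ± SD. Zeta potential came from electrophoretic mobility (Smoluchowski) after 1 d aggregation at 1 mg/mL in PBS pH 7.4, diluted into 1 mM KCl.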

[2] = Turbidity, derived count rate of scattered light; format: physicochemical; settings: for Count Rate: derived count rate of scattered light (turbidity); for Log10 Count Rate: turbidity, derived count rate of scattered light, data of Figure 2D
[3] = tested on: HIV-1 infection of TZM-bl cells; assay: HIV-1 infectivity enhancement assay, β-galactosidase luminescence; format: cell-based; settings: for Rel-EFC: infection relative to EF-C (QCKIKQIINMWQ = 1); for Log10 Infection Rel EFC: log10 of infection relative to EF-C; for Log Infectivity: Log10 infection relative to EF-C, TZM-bl cells, asymmetric std dev errors; for Log10 Infection Rel EF-C: HIV-1 infection of TZM-bl cells; for Log10 of Rel to EFC (Feb2021): Log10 of infection relative to EF-C, all peptides of FigS16; for Abs. Inf.: absolute infection signal, HIV-1 on TZM-bl cells, β-galactosidase luminescence; for Log10 Inf. rel. to EF-C: log10 of HIV-1 infection of TZM-bl cells relative to EF-C (EF-C = 0)
[4] = Fig. S7 panel A (plotted against β-sheet content)
[5] = Fig. S7 panel B (plotted against CR), rounded to two decimals
[6] = Log10 of infection rate relative to EF-C, Figure 3A source data
[7] = infection rate relative to EF-C, log10, data of Figure 2D
[8] = infection rate relative to EF-C, log10, source data of Figure 2C
[9] = ThT fluorescence category, 1 if Rel. ThT >2

Substance | Tht category (> 2 to blank = +) ([1]; Fig S10 panel D) | ThT Cat. ([1]; Fig S10 panel E) | ThT Cat, ([1]; ThT category, 1 if Rel. ThT >2) | ThT Cat. ([1]; ThT category, 1 if Rel. ThT >2) | ThT Cat. / ThT-Fluorescence (categorical) [1] | Count Rate [2] | Log10 Count Rate [2] | Rel-EFC ([3]; 1.3 µM peptide) | Log10 Infection Rel EFC ([3]; 1.3 µM peptide) | Log Infectivity [3, 4] | Log Infectivity [3, 5] | Log10 Infection Rel EF-C [3, 6] | Log10 Infection Rel EF-C [3, 7] | Log10 Infection Rel EF-C [3, 8] | Abs. Inf. [3] | Log10 Inf. rel. to EF-C [3] | Tht category (> 2 to blank = +) ([1]; FigS12 panel A) | ThT Cat, ([1]; FigS12 panel B) | further results
HIHIQIC | 1 (ThT. Cat is 1, if Rel. ThT >2) | 1 (ThT. Cat is 1, if Rel. ThT >2) | 1 (ThT. Cat is 1, if Rel. ThT >2) | 1 (ThT. Cat is 1, if Rel. ThT >2) | 1 (ThT. Cat is 1, if Rel. ThT >2) | 260.6 | 2.416 | 0,27 | -0,57 | -0.5672 | -0.57 | -0.57 | -0.5672 | -0.5672 | 4621 | -0.5672 |  |  | Log10 of Rel to EFC (Feb2021) [3]: -0.57
HLHLPLL | 0 (ThT-inactive (N-Fold <2)) | 0 (ThT-inactive (N-Fold <2)) | 0 (ThT-inactive (N-Fold <2)) | 0 (ThT-inactive (N-Fold <2)) | 0 (ThT-inactive (N-Fold <2)) | 200 | 2.301 | 0,01 | -2 | -1.9991 | -2 | -2 | -1.9991 | -1.9991 | 133.3 | -1.9991 | 0 (ThT-inactive (N-Fold <2)) | 0 (ThT-inactive (N-Fold <2)) | 
HRRHFRHKITKKK | 0 (ThT-inactive (N-Fold <2)) | 0 (ThT-inactive (N-Fold <2)) | 0 (ThT-inactive (N-Fold <2)) | 0 (ThT-inactive (N-Fold <2)) | 0 (ThT-inactive (N-Fold <2)) | 9.5 | 0.9777 | 0,01 | -1,87 | -1.868 | -1.87 | -1.87 | -1.868 | -1.868 | 150 | -1.868 | 0 (ThT-inactive (N-Fold <2)) | 0 (ThT-inactive (N-Fold <2)) | 
KAKAQA | 0 (ThT-inactive (N-Fold <2)) | 0 (ThT-inactive (N-Fold <2)) | 0 (ThT-inactive (N-Fold <2)) |  | 0 (ThT-inactive (N-Fold <2)) | 20.93 | 1.321 | 0,02 | -1,74 | -1.743 | -1.74 | -1.74 | -1.743 | -1.743 |  | -1.743 | 0 (ThT-inactive (N-Fold <2)) | 0 (ThT-inactive (N-Fold <2)) | ThT Cat. [1, 9]: 0 (ThT-inactive (N-Fold <2)); Abs. Infection at 0.26 µM ([3]; peptide 0.26 µM, mean of n = 3, Figure 4A): 100; Infect 1 0.26 µM ([3]; peptide 0.26 µM, replicate 1, absolute infection signal, Figure 4A): -23.33; Infect 2 0.26 µM ([3]; peptide 0.26 µM, replicate 2, absolute infection signal, Figure 4A): 166.67; Infect 3 0.26 µM ([3]; peptide 0.26 µM, replicate 3, absolute infection signal, Figure 4A): 156.67; Abs. Infection at 1.3 µM ([3]; peptide 1.3 µM, mean of n = 3, Figure 4A): 146.7; Infect 1 .3 µM ([3]; peptide 1.3 µM, replicate 1, absolute infection signal, Figure 4A): 126.67; Infect 2 1.3µM ([3]; peptide 1.3 µM, replicate 2, absolute infection signal, Figure 4A): 46.67; Infect 3 1.3 µM ([3]; peptide 1.3 µM, replicate 3, absolute infection signal, Figure 4A): 266.67
KAKAQANMWQ | 0 (ThT-inactive (N-Fold <2)) | 0 (ThT-inactive (N-Fold <2)) | 0 (ThT-inactive (N-Fold <2)) | 0 (ThT-inactive (N-Fold <2)) | 0 (ThT-inactive (N-Fold <2)) | 56.17 | 1.749 | 0,01 | -2,15 | -2.146 | -2.15 | -2.15 | -2.146 | -2.146 | 193.3 | -2.146 | 0 (ThT-inactive (N-Fold <2)) | 0 (ThT-inactive (N-Fold <2)) | Rel. ThT ([1]; n-fold ThT fluorescence vs control (PBS, 10% DMSO), 4 µL 1 mg/mL fibrils + 20 µL 50 µM ThT, 15 min RT, ex 440 / em 488 nm, triplicate): 1; Inf. rel. EF-C ([3]; HIV-1 infection relative to EF-C, Fig 23 plot, panels A and B, mean of 3 values): 0.008469; Inf. rel. EF-C ([3]; HIV-1 infection relative to EF-C, Fig 23 plot, single data point, replicate 1): 0.01122; Inf. rel. EF-C ([3]; HIV-1 infection relative to EF-C, Fig 23 plot, single data point, replicate 2): 0.003015; Inf. rel. EF-C ([3]; HIV-1 infection relative to EF-C, Fig 23 plot, single data point, replicate 3): 0.01117; Abs. Inf. / RLU s-1 ([3]; absolute infection rate, peptide 1.3 µM on cells, virus preincubated 10 min with fibrils, read 3 days post infection, mean of triplicate): 193 RLU s-1; Inf. rel. EF-C ([3]; n-fold infection vs virus only, relative to that of EF-C, 1.3 µM peptide): 0.01
KAKQAANMWQ | 0 (ThT-inactive (N-Fold <2)) |  | 0 (ThT-inactive (N-Fold <2)) | 0 (ThT-inactive (N-Fold <2)) | 0 (ThT-inactive (N-Fold <2)) | 690.5 | 2.839 | 0,03 | -1,51 | -1.514 |  | -1.51 | -1.514 | -1.514 | 343.3 | -1.514 | 0 (ThT-inactive (N-Fold <2)) | 0 (ThT-inactive (N-Fold <2)) | 
KFKFQF | 0 (ThT-inactive (N-Fold <2)) | 0 (ThT-inactive (N-Fold <2)) | 0 (ThT-inactive (N-Fold <2)) |  | 0 (ThT-inactive (N-Fold <2)) | 183.4 | 2.263 | 0,06 | -1,21 | -1.213 | -1.21 | -1.21 | -1.213 | -1.213 |  | -1.213 | 0 (ThT-inactive (N-Fold <2)) | 0 (ThT-inactive (N-Fold <2)) | ThT Cat. [1, 9]: 0 (ThT-inactive (N-Fold <2))
KFKFQFNMWQ | 1 (ThT. Cat is 1, if Rel. ThT >2) | 1 (ThT. Cat is 1, if Rel. ThT >2) | 1 (ThT. Cat is 1, if Rel. ThT >2) | 1 (ThT. Cat is 1, if Rel. ThT >2) | 1 (ThT. Cat is 1, if Rel. ThT >2) | 734.6 | 2.866 | 0,76 | -0,12 | -0.1164 | -0.12 | -0.12 | -0.1164 | -0.1164 | 20676.66667 | -0.1164 |  |  | Log10 of Rel to EFC (Feb2021) [3]: -0.12
KFKQFFNMWQ | 0 (ThT-inactive (N-Fold <2)) |  | 0 (ThT-inactive (N-Fold <2)) | 0 (ThT-inactive (N-Fold <2)) | 0 (ThT-inactive (N-Fold <2)) | 236.9 | 2.375 | 0,09 | -1,05 | -1.0494 |  | -1.05 | -1.0494 | -1.0494 | 1000 | -1.0494 | 0 (ThT-inactive (N-Fold <2)) | 0 (ThT-inactive (N-Fold <2)) | 
